ChEMBL document CHEMBL1201861, “Genomics of Drug Sensitity in Cancer screening data, Wellcome Trust Sanger Institute”
pIC50: −log10 of the molar value. Where “and” joins values, the source holds several entries; their conditions need not be identical. Identical values can stand only once.

How the values were obtained:
[1] = system: H-EMC-SS; experiment: cells; assay type: functional, cell-based; settings: Homo sapiens
Description: SANGER: Inhibition of human H-EMC-SS cell growth in a cell viability assay.

[2] = system: CHP-134; experiment: SANGER: Inhibition of human CHP-134 cell growth in a cell viability assay.; assay type: functional, cell-based
[3] = system: LU-135; experiment: cells; assay type: functional, cell-based; settings: Homo sapiens
Description: SANGER: Inhibition of human LU-135 cell growth in a cell viability assay.

[4] = system: ECC10; experiment: cells; assay type: functional, cell-based; settings: Homo sapiens;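 further: growth inhibition of ECC10 cells, read out by a cell viability assay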
Description: SANGER: Inhibition of human ECC10 cell growth in a cell viability assay.

[5] = system: H9; experiment: cells; assay type: functional, cell-based; settings: Homo sapiens
Description: SANGER: Inhibition of human H9 cell growth in a cell viability assay.

[6] = system: D-423MG; experiment: cells; assay type: functional, cell-based; settings: Homo sapiens
Description: SANGER: Inhibition of human D-423MG cell growth in a cell viability assay.

[7] = system: SJRH30; experiment: cells; assay type: functional, cell-based; settings: Homo sapiens;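 further: growth inhibition of human SJRH30 cells, read out with a cell viability assay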
Description: SANGER: Inhibition of human SJRH30 cell growth in a cell viability assay.

[8] = system: NCI-H2009; experiment: cells; assay type: functional, cell-based, Homo sapiens;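 further: cell viability assay measuring inhibition of NCI-H2009 cell growth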
Description: SANGER: Inhibition of human NCI-H2009 cell growth in a cell viability assay.

[9] = system: NBsusSR; experiment: cells; assay type: functional, cell-based; settings: Homo sapiens;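 further: growth inhibition of the human cell line, read out with a cell viability assay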
Description: SANGER: Inhibition of human NBsusSR cell growth in a cell viability assay.

[10] = system: BALL-1; experiment: cells; assay type: functional, cell-based; settings: Homo sapiens;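 further: growth inhibition of BALL-1 cells, read out with a cell viability assay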
Description: SANGER: Inhibition of human BALL-1 cell growth in a cell viability assay.

[11] = system: NCI-H630; experiment: cells; assay type: functional, cell-based, Homo sapiens;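 further: growth inhibition of NCI-H630 cells, read out with a cell viability assay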
Description: SANGER: Inhibition of human NCI-H630 cell growth in a cell viability assay.

[12] = system: PLC-PRF-5; experiment: cells; assay type: functional, cell-based; settings: Homo sapiens;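 further: growth inhibition of human PLC-PRF-5 cells, read out with a viability assay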
Description: SANGER: Inhibition of human PLC-PRF-5 cell growth in a cell viability assay.

[13] = system: COLO 205; experiment: cells; assay type: functional, cell-based; settings: Homo sapiens
Description: SANGER: Inhibition of human COLO-205 cell growth in a cell viability assay.

[14] = system: SNU-16; experiment: cells; assay type: functional, cell-based; settings: Homo sapiens;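 further: growth inhibition of human SNU-16 cells, determined with a cell viability readout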
Description: SANGER: Inhibition of human NCI-SNU-16 cell growth in a cell viability assay.

[15] = system: EFE-184; experiment: cells; assay type: functional, cell-based; settings: Homo sapiens
Description: SANGER: Inhibition of human EFE-184 cell growth in a cell viability assay.

[16] = system: COR-L279; experiment: SANGER: Inhibition of human COR-L279 cell growth in a cell viability assay.; assay type: functional, cell-based
[17] = system: DG-75; experiment: cells; assay type: functional, cell-based; settings: Homo sapiens;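 further: growth inhibition of DG-75 cells, read out with a cell viability assay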
Description: SANGER: Inhibition of human DG-75 cell growth in a cell viability assay.

[18] = system: NCI-H1618; experiment: cells; assay type: functional, cell-based; settings: Homo sapiens;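 further: growth inhibition of human NCI-H1618 cells, measured by a cell viability assay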
Description: SANGER: Inhibition of human NCI-H1618 cell growth in a cell viability assay.

[19] = system: TT; experiment: cells; assay type: functional, cell-based; settings: Homo sapiens
Description: SANGER: Inhibition of human TT cell growth in a cell viability assay.

[20] = system: C-4-II; experiment: SANGER: Inhibition of human C-4-II cell growth in a cell viability assay.; assay type: functional, cell-based
[21] = system: DV-90; experiment: cells; assay type: functional, cell-based; settings: Homo sapiens;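 further: Read-out is a viability assay, with IC50 reflecting the drop in DV-90 cell growth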
Description: SANGER: Inhibition of human DV-90 cell growth in a cell viability assay.

[22] = system: MFE-296; experiment: SANGER: Inhibition of human MFE-296 cell growth in a cell viability assay.; assay type: functional, cell-based
[23] = system: DMS-53; experiment: cells; assay type: functional, cell-based, Homo sapiens;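 further: cell viability assay measuring growth inhibition of human DMS-53 cells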
Description: SANGER: Inhibition of human DMS-53 cell growth in a cell viability assay.

[24] = system: RT-4; experiment: SANGER: Inhibition of human RT4 cell growth in a cell viability assay.; assay type: functional, cell-based; settings: rt-4
[25] = system: MDA-MB-468; experiment: cells; assay type: functional, cell-based; settings: Homo sapiens
Description: SANGER: Inhibition of human MDA-MB-468 cell growth in a cell viability assay.

[26] = system: NCI-H64; experiment: cells; assay type: functional, cell-based; settings: Homo sapiens;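 further: growth inhibition of NCI-H64 cells, read out with a cell viability assay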
Description: SANGER: Inhibition of human NCI-H64 cell growth in a cell viability assay.

[27] = system: MES-SA; experiment: cells; assay type: functional, cell-based, Homo sapiens; settings: mes-sa;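 further: growth inhibition of human MES-SA cells, read out with a cell viability assay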
Description: SANGER: Inhibition of human MES-SA cell growth in a cell viability assay.

[28] = system: MC-CAR; experiment: cells; assay type: functional, cell-based; settings: Homo sapiens;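 further: growth inhibition of the human MC-CAR cell line, read out by a cell viability assay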
Description: SANGER: Inhibition of human MC-CAR cell growth in a cell viability assay.

[29] = system: LC4-1; experiment: cells; assay type: functional, cell-based; settings: Homo sapiens;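 further: growth inhibition of LC4-1 cells, read out with a cell viability assay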
Description: SANGER: Inhibition of human LC4-1 cell growth in a cell viability assay.

[30] = system: Caov-3 cell line; experiment: cells; assay type: functional, cell-based; settings: Homo sapiens;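 further: cell growth inhibition read out by a viability assay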
Description: SANGER: Inhibition of human Caov-3 cell growth in a cell viability assay.

[31] = system: SIMA; experiment: cells; assay type: functional, cell-based, Homo sapiens; settings: sima;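 further: growth inhibition of SIMA cells, measured with a cell viability readout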
Description: SANGER: Inhibition of human SIMA cell growth in a cell viability assay.

[32] = system: HSC-4; experiment: cells; assay type: functional, cell-based, Homo sapiens; settings: hsc-4;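 further: growth inhibition of human HSC-4 cells, read out with a cell viability assay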
Description: SANGER: Inhibition of human HSC-4 cell growth in a cell viability assay.

[33] = system: TUR; experiment: cells; assay type: functional, cell-based; settings: Homo sapiens;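 further: growth inhibition of human TUR cells, read out with a cell viability assay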
Description: SANGER: Inhibition of human TUR cell growth in a cell viability assay.

[34] = system: IST-SL2; experiment: cells; assay type: functional, cell-based; settings: Homo sapiens;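 further: growth inhibition of human IST-SL2 cells, read out by a cell viability assay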
Description: SANGER: Inhibition of human IST-SL2 cell growth in a cell viability assay.

[35] = system: MDA-MB-134-VI; experiment: cells; assay type: functional, cell-based; settings: Homo sapiens
Description: SANGER: Inhibition of human MDA-MB-134-VI cell growth in a cell viability assay.

[36] = system: BOKU; experiment: cells; assay type: functional, cell-based; settings: Homo sapiens;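 further: growth inhibition of the human BOKU cell line, read out by a cell viability assay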
Description: SANGER: Inhibition of human BOKU cell growth in a cell viability assay.

[37] = system: NCI-H889; experiment: cells; assay type: functional, cell-based; settings: Homo sapiens;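 further: cell growth inhibition of the cell line, read out with a viability assay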
Description: SANGER: Inhibition of human NCI-H889 cell growth in a cell viability assay.

[38] = system: TE-15; experiment: cells; assay type: functional, cell-based; settings: Homo sapiens;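 further: cell viability readout of growth inhibition in TE-15 cells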
Description: SANGER: Inhibition of human TE-15 cell growth in a cell viability assay.

[39] = system: ST486; experiment: SANGER: Inhibition of human ST486 cell growth in a cell viability assay.; assay type: functional, cell-based
[40] = system: NCI-H838; experiment: cells; assay type: functional, cell-based; settings: Homo sapiens;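 further: growth inhibition of human NCI-H838 cells, read out by a cell viability assay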
Description: SANGER: Inhibition of human NCI-H838 cell growth in a cell viability assay.

[41] = system: CHP-126; experiment: cells; assay type: functional, cell-based; settings: Homo sapiens
Description: SANGER: Inhibition of human CHP-126 cell growth in a cell viability assay.

[42] = system: IPC-298; experiment: SANGER: Inhibition of human IPC-298 cell growth in a cell viability assay.; assay type: functional, cell-based
[43] = system: LB647-SCLC; experiment: cells; assay type: functional, cell-based; settings: Homo sapiens;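 further: cell growth inhibition, read out by a viability assay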
Description: SANGER: Inhibition of human LB647-SCLC cell growth in a cell viability assay.

[44] = system: SCC-3; experiment: cells; assay type: functional, cell-based; settings: Homo sapiens;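 further: cell viability assay measuring inhibition of SCC-3 cell growth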
Description: SANGER: Inhibition of human SCC-3 cell growth in a cell viability assay.

[45] = system: SR; experiment: cells; assay type: functional, cell-based; settings: Homo sapiens
Description: SANGER: Inhibition of human SR cell growth in a cell viability assay.

[46] = system: NCI-H322M; experiment: cells; assay type: functional, cell-based; settings: Homo sapiens;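 further: cell viability assay measuring inhibition of growth of human NCI-H322M cells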
Description: SANGER: Inhibition of human NCI-H322M cell growth in a cell viability assay.

[47] = system: NCI-H1734; experiment: cells; assay type: functional, cell-based; settings: Homo sapiens;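 further: growth inhibition of human NCI-H1734 cells, read out with a cell viability assay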
Description: SANGER: Inhibition of human NCI-H1734 cell growth in a cell viability assay.

[48] = system: NCI-H2171; experiment: cells; assay type: functional, cell-based; settings: Homo sapiens;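 further: growth inhibition of human NCI-H2171 cells, read out by a cell viability assay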
Description: SANGER: Inhibition of human NCI-H2171 cell growth in a cell viability assay.

[49] = system: SIG-M5; experiment: cells; assay type: functional, cell-based; settings: Homo sapiens;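 further: cell viability assay read-out, measuring how strongly growth of cultured human SIG-M5 cells is inhibited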
Description: SANGER: Inhibition of human SIG-M5 cell growth in a cell viability assay.

[50] = system: EW-7; experiment: SANGER: Inhibition of human EW-7 cell growth in a cell viability assay.; assay type: functional, cell-based; settings: ew-7
[51] = system: SNG-M; experiment: cells; assay type: functional, cell-based; settings: Homo sapiens
Description: SANGER: Inhibition of human SNG-M cell growth in a cell viability assay.

[52] = system: LOUCY; experiment: cells; assay type: functional, cell-based; settings: Homo sapiens;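 further: growth inhibition of human LOUCY cells, read out with a cell viability assay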
Description: SANGER: Inhibition of human LOUCY cell growth in a cell viability assay.

[53] = system: CCF-STTG1; experiment: cells; assay type: functional, cell-based; settings: Homo sapiens;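 further: growth inhibition of human CCF-STTG1 cells, determined with a cell viability read-out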
Description: SANGER: Inhibition of human CCF-STTG1 cell growth in a cell viability assay.

[54] = system: SK-CO-1; experiment: cells; assay type: functional, cell-based; settings: Homo sapiens;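 further: growth inhibition of SK-CO-1 cells, determined by a viability readout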
Description: SANGER: Inhibition of human SK-CO-1 cell growth in a cell viability assay.

[55] = system: BC1 cell line; experiment: SANGER: Inhibition of human BC-1 cell growth in a cell viability assay.; assay type: functional, cell-based
[56] = system: CAL-148; experiment: cells; assay type: functional, cell-based; settings: Homo sapiens
Description: SANGER: Inhibition of human CAL-148 cell growth in a cell viability assay.

[57] = system: EB-3; experiment: cells; assay type: functional, cell-based; settings: Homo sapiens;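 further: human EB-3 cells, growth inhibition read out via a cell viability assay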
Description: SANGER: Inhibition of human EB-3 cell growth in a cell viability assay.

[58] = system: Calu-1; experiment: SANGER: Inhibition of human Calu-1 cell growth in a cell viability assay.; assay type: functional, cell-based

CCOc1nc(NC(=O)Cc2cc(OC)ccc2OC)cc(N)c1C#N
pIC50 [1]: < 5.00
pIC50 [2]: < 5.00
pIC50 [3]: < 5.00
pIC50 [4]: < 5.00
pIC50 [5]: < 5.00
pIC50 [6]: < 5.00
pIC50 [7]: < 5.00
pIC50 ([8]; Homo sapiens, NCI-H2009): < 5.00
pIC50 [9]: < 5.00
pIC50 [10]: < 5.00
pIC50 ([11]; Homo sapiens, NCI-H630): < 5.00

CC(=O)O[C@@H]1[C@@H](OC(C)=O)[C@@H](O)[C@H](Oc2c(-c3ccc(O)cc3)oc3cc(O)cc(O)c3c2=O)O[C@H]1C
pIC50 [1]: < 5.00
pIC50 [2]: < 5.00
pIC50 [3]: < 5.00
pIC50 [4]: < 5.00
pIC50 [5]: < 5.00
pIC50 [6]: < 5.00
pIC50 [7]: < 5.00
pIC50 ([8]; Homo sapiens, NCI-H2009): < 5.00
pIC50 [9]: < 5.00
pIC50 [10]: < 5.00
pIC50 ([11]; Homo sapiens, NCI-H630): < 5.00

COc1cc(F)c(F)c(Nc2ccc(I)cc2F)c1NS(=O)(=O)C1(CC(O)CO)CC1 (stereo not given)
pIC50 [1]: 6.04
pIC50 [2]: < 5.30
pIC50 [3]: < 5.30
pIC50 [4]: 5.86
pIC50 [5]: 7.70
pIC50 [6]: < 5.30
pIC50 [7]: < 5.30
pIC50 [9]: < 5.30
pIC50 [10]: < 5.30
pIC50 ([11]; Homo sapiens, NCI-H630): < 5.30

O=C1N=C(NCc2cccs2)S/C1=C\c1ccc2ncccc2c1
pIC50 [1]: < 5.30
pIC50 [2]: < 5.30
pIC50 [3]: < 5.30
pIC50 [4]: < 5.30
pIC50 [5]: < 5.30
pIC50 [6]: < 5.30
pIC50 [7]: < 5.30
pIC50 [9]: < 5.30
pIC50 [10]: < 5.30
pIC50 ([11]; Homo sapiens, NCI-H630): < 5.30

Cc1cc([C@@H](C)Nc2ccccc2C(=O)O)c2nc(N3CCOCC3)cc(=O)n2c1 [AZD-6482]
pIC50 [12]: < 5.29
pIC50 [13]: < 5.29
pIC50 [14]: < 5.29
pIC50 [15]: < 5.29
pIC50 [1]: < 5.29
pIC50 [16]: < 5.29
pIC50 [17]: < 5.29
pIC50 [18]: < 5.29
pIC50 [19]: < 5.29
pIC50 [20]: < 5.29
pIC50 [21]: < 5.29
pIC50 [22]: 5.80
pIC50 ([23]; Homo sapiens, DMS-53): < 5.29
pIC50 ([23]; dms-53): < 5.29
pIC50 [24]: < 5.29
pIC50 [25]: 5.81
pIC50 [26]: 5.58
pIC50 [27]: < 5.29 and 5.96
pIC50 [28]: < 5.29
pIC50 [29]: < 5.29
pIC50 [30]: < 5.29
pIC50 [31]: < 5.29
pIC50 [6]: 5.53
pIC50 [7]: < 5.29
pIC50 ([8]; nci-h2009): 5.30 and < 5.29
pIC50 [32]: < 5.29
pIC50 [33]: < 5.29
pIC50 [34]: < 5.29
pIC50 [35]: < 5.29
pIC50 [36]: < 5.29
pIC50 [37]: < 5.29
pIC50 [38]: 5.33
pIC50 [39]: < 5.29
pIC50 [40]: < 5.29
pIC50 [41]: < 5.29
pIC50 [42]: < 5.29
pIC50 [43]: < 5.29
pIC50 [44]: < 5.29
pIC50 [45]: < 5.29
pIC50 [46]: < 5.29
pIC50 [47]: < 5.29
pIC50 [48]: < 5.29
pIC50 [49]: < 5.29
pIC50 [50]: 6.06 and 5.51
pIC50 [51]: < 5.29
pIC50 [52]: < 5.29
pIC50 [53]: 5.85
pIC50 [54]: < 5.29
pIC50 [55]: < 5.29
pIC50 ([11]; nci-h630): < 5.29
pIC50 [56]: 5.38
pIC50 [57]: < 5.29
pIC50 [58]: < 5.29
